Series [1] relates to FGF-stimulated HUVEC. Kind of series: FGF-stimulated HUVEC proliferation assay (BrdU). The format is cell-based. Particulars: Homo sapiens, FGF 5 ng per mL, BrdU labeling, 24 hour exposure, read-out: IC50 (μM) of VEGF and FGF-Stimulated HUVEC Proliferation Assays HUVEC/bFGFR. The procedure: (§1) The antiproliferative activity of test compounds of this invention in cell-based assays was evaluated by BrdU assay using the BrdU kit (Roche Biochemicals 1-647-229). Human umbilical vein endothelial cells (HUVEC, Clonetics CC-2519) were cultured in EGM-2 (Clonetics CC-3162) medium and seeded at 10000 cells per well in a volume of 200 μL of EGM-2 (Clonetics CC-3162) media in a 96-well flat bottom plates (Costar 3595) overnight. After 24 hours of growth at 37° C. with 5% CO2, the incubation media was removed slowly by aspiration and the content of each well was washed with 300 μL pre-warmed EBM-2 (Clonetics CC-3156) containing 50 μg per mL of gentamycin and 50 ng per mL of amphotercin-B (Clonetics CC-4083). Subsequently, the remaining media was again aspirated and replaced with 160 μL per well of serum starvation media (EBM-2 supplemented with 1% heat inactivated FBS (Clonetics CC-4102), 50 μg per mL gentamycin and 50 ng per mL of amphotercin-B (Clonetics CC-4083), 10 units per mL of Wyeth-Ayerst heparin (NDC0641-0391-25), and 2 mM L-glutamine (GIBCO 25030-081). After serum starving the cells for 24 hours, 20 μL of test compound at 10× test concentration in serum starvation medium with 2.5% DMSO was added to the appropriate wells. The control wells contained 20 μL of serum starvation medium with 2.5% DMSO. Plates were returned to the incubator for 2 hours. After pre-incubating the cells with the test compounds for 2 hours, 20 μL of growth factors at 10× assay concentration diluted in serum starvation media, FGF at 50 ng per mL, or VEGF (R&D systems 293-VE) at 200 ng per mL were added. The final concentration of FGF in the assay was 5 ng per mL and the final concentration of VEGF in the assays was 20 ng per mL. The growth factor free control wells had 20 μL per well of serum starvation media with the same amount of BSA as the wells with growth factors. The plates were returned to the incubator for an additional 22 hours.
(§2) After 24 hour exposure to the test compounds, the cells were labeled with BrdU (Roche Biochemicals 1-647-229), by adding 20 μL per well of BrdU labeling reagent that has been diluted (1:100) in serum starvation medium. The plates were then returned to the incubator for 4 hours. The labeling medium was removed by draining the medium onto paper towels. The cells were fixed and DNA denatured by adding 200 μL of fixation/denaturation solution to each well and incubating at room temperature for 45 minutes. The fixation/denaturation solution was drained onto paper towels and to each well was added 100 μL of anti-BrdU-POD and the wells were incubated for 2 hours at room temperature. The antibody solution was removed and the wells were each washed 3–4 times with 300 μl PBS. 100 μL of the TMB substrate solution was added to each well and the wells were incubated at room temperature for 5–8 minutes. The reaction was then stopped by adding 100 μL per well of 1 M phosphoric acid. The plates were read at 450 nm with reference wavelength of 650 nm. The percent inhibition for each test compound was calculated by subtracting the absorbency of the blank (no cells) wells from all wells, then subtracting the division of the average absorbency of each test duplicate by the average of the controls from 1. The final product was then multiplied by 100 (% of inhibition=(1−average absorbency of test duplicate/average of control)100). The IC50 value is the concentration of test compound that inhibits by 50% BrdU labeling, and is a measure of inhibition of cell proliferation. The IC50 is determined from the linear regression of a plot of the logarithm of the concentration versus percent inhibition.

Series [2] has as its target PDGFR. Kind of series: PDGFR kinase HTRF assay. The format is biochemical. Particulars: 2.3 μM ATP, read-out: IC50 (μM) - Enzyme Inhibition Assays PDGFR. How it is done: To determine inhibition of KDR, FGFR, EGFR, and PDGFR activity, kinase assays were conducted using an HTRF (Homogeneous Time Resolved Fluorescence) assay. This assay is described in A. J. Kolb et. al., Drug Discovery Today, 1998, 3(7), p 333.
Kinase activity assays were performed in 96-well polypropylene plates (Falcon) with a total volume of 90 μL in each well. Each well contained 1 μM KDR substrate (Biotin-EEEEYFELVAKKKK), 1 nM activated KDR, and a test compound with one of 8 assay concentrations ranging from 100 μM to […] (1:5 serial dilution). The kinase activity assay was done in the presence of 100 mM HEPES, pH 7.4, 1 mM DTT, 0.1 mM Na2VO4, 25 mM MgCl2, 50 mM NaCl (from KDR stock solution), 1% DMSO (from compound), 0.3 mM ATP (at Km concentration) and 0.02% BSA. The reaction was incubated at 37° C. for 30 minutes. To stop the KDR reaction, 72 μL of reaction mixture was transferred into a STOP plate containing 18 μL of revelation buffer (20 mM EDTA, 50 mM HEPES, pH 7.4, 0.02% BSA, 10 nM Eu-labelled anti-pY antibody (final conc. 2 nM), and 100 nM streptavidin (final conc. 20 nM)). After mixing, 35 μL of solution was transferred into duplicate wells of a 384-well black plate (Costar), and read at 615/665 nm on a Wallac Victor 5 reader.
The PDGFR kinase activity assay was performed with 1 μM substrate (Biotin-EEEEYFELV), 1.0 nM PDGFR, test compounds, 100 mM HEPES, pH 7.4, 1 mM DTT, 5 mM MgCl2, 2 mM MnCl2, 1% DMSO, 2.3 μM ATP (Km for PDGFR), 0.1 mM Na2VO4, and 0.02% BSA. The rest of the assay was performed in the same manner as the KDR assay.
Compound IC50 values were determined from duplicate sets of data, and calculated by using Excel and fitting data to equation Y=[(a−b)/{1+(X/c)^d]+b, where a and b are enzyme activity in the presence of no test inhibitor compound and an infinite amount of inhibitor test compound, respectively, c is the IC50 and d is the hill constant of the compound response. The IC50 value is the concentration of test compound that reduces by 50% the enzyme activity under the test conditions described.

The test system of series [3] is VEGF-stimulated HUVEC. The series is described as follows: VEGF-stimulated HUVEC proliferation assay (BrdU). The class given is cell-based. To be noted: Homo sapiens, VEGF 20 ng per mL, BrdU labeling, 24 hour exposure, read-out: IC50 (μM) of VEGF and FGF-Stimulated HUVEC Proliferation Assays HUVEC/VEFG. How it is done:
as §1, §2

The text below walks through data of patent US7112676B2, “Pyrimido compounds having antiproliferative activity” (Hoffmann-La Roche Inc., priority 2002, dated 2006).

Each structure is given as a SMILES string.

What is called melting point is the temperature, or range, at which the solid turns liquid. Consider `COc1ccc(N2C(=O)N(c3ccccc3)c3nc(Nc4ccccc4)ncc3C2C)cc1` (racemic) [Example 1g, (±)-3-(4-Methoxy-phenyl)-4-methyl-1-phenyl-7-phenylamino-3,4-dihydro-1H-pyrimido[4,5-d]pyrimidin-2-one], for which the melting point lay in the range of 222 to 234 °C. For the same molecule, the IC50 in series [1] was less than 10 µM. The IC50 in series [2] was less than 10 µM. Besides, the IC50 in series [3] is less than 10 µM.
Consider `COc1ccc(N2C(=O)N(c3ccc(OC)cc3)C(C)c3cnc(Nc4ccccc4)nc32)cc1` (racemic) [Example 4b, (±)-1,3-Bis-(4-methoxy-phenyl)-4-methyl-7-phenylamino-3,4-dihydro-1H-pyrimido[4,5-d]pyrimidin-2-one], for which the melting point was 228 to 234 °C. For the same molecule, the IC50 in series [1] is less than 10 µM. In addition, in series [2], the IC50 was less than 10 µM. Also, the IC50 in series [3] was less than 10 µM.
As for `COc1ccc(N2C(=O)N(c3cccc(C#N)c3)c3nc(Nc4ccccc4)ncc3C2C)cc1` (racemic) [Example 5b, (±)-3-[3-(4-Methoxy-phenyl)-4-methyl-2-oxo-7-phenylamino-3,4-dihydro-2H-pyrimido[4,5-d]pyrimidin-1-yl]-benzonitrile], the melting point fell in the range of 224 to 228 °C. The IC50 in series [1] is less than 10 µM. Also, in series [2], the IC50 was less than 10 µM. Also, the IC50 in series [3] is less than 10 µM.
On to `COc1ccc(N2C(=O)N(c3cccc(C(N)=O)c3)c3nc(Nc4ccccc4)ncc3C2C)cc1` (racemic) [Example 6, (±)-3-[3-(4-Methoxy-phenyl)-4-methyl-2-oxo-7-phenylamino-3,4-dihydro-2H-pyrimido[4,5-d]pyrimidin-1-yl]-benzamide], for which the melting point was in the range of 268 to 273 °C. Moreover, the IC50 in series [1] was less than 10 µM. Also, in series [2], the IC50 is less than 10 µM. In series [3], the IC50 is less than 10 µM.
As for `COc1ccc(N2C(=O)N(c3ccccc3)c3nc(Nc4ccccc4)ncc3C2C)c(F)c1` (racemic) [Example 8d, (±)-3-(2-Fluoro-4-methoxy-phenyl)-4-methyl-1-phenyl-7-phenylamino-3,4-dihydro-1H-pyrimido[4,5-d]pyrimidin-2-one], the melting point fell in the range of 242 to 250 °C. Moreover, the IC50 in series [1] is less than 10 µM. Moreover, the IC50 in series [2] is less than 10 µM. For the same molecule, in series [3], the IC50 is less than 10 µM.
As for `COc1ccc(N2C(=O)N(c3cccc(C#N)c3)c3nc(Nc4ccccc4)ncc3C2C)c(F)c1` (racemic) [Example 9b, (±)-3-[3-(2-Fluoro-4-methoxy-phenyl)-4-methyl-2-oxo-7-phenylamino-3,4-dihydro-2H-pyrimido[4,5-d]pyrimidin-1-yl]-benzonitrile], the melting point was in the range of 223 to 228 °C. Besides, the IC50 in series [1] was less than 10 µM. Further, in series [2], the IC50 was less than 10 µM. Besides, the IC50 in series [3] is less than 10 µM.
`COc1ccc(N2C(=O)N(c3cccc(C(N)=O)c3)c3nc(Nc4ccccc4)ncc3C2C)c(F)c1` (racemic) [Example 10, (±)-3-[3-(2-Fluoro-4-methoxy-phenyl)-4-methyl-2-oxo-7-phenylamino-3,4-dihydro-2H-pyrimido[4,5-d]pyrimidin-1-yl]-benzamide] displayed a melting point of 282 to 286 °C. Besides, the IC50 in series [1] was less than 10 µM. In series [2], the IC50 was less than 10 µM. Further, in series [3], the IC50 is less than 10 µM.
`COc1ccc(N2C(=O)N(c3ccccc3)c3nc(Nc4ccccc4)ncc3[C@@H]2C)cc1` (single isomer, unassigned) [Example 3] yielded a melting point of 223 to 236 °C. In addition, in series [1], the IC50 was less than 10 µM. For the same molecule, the IC50 in series [2] was less than 10 µM. In addition, the IC50 in series [3] is less than 10 µM.
As to `COc1ccc(N2C(=O)N([C@H](C)CO)c3nc(Nc4ccccc4)ncc3[C@@H]2C)cc1` [Example 15b, 1-(2-Hydroxy-1-(R)-methyl-ethyl)-3-(4-methoxy-phenyl)-4-(S)-methyl-7-phenylamino-3,4-dihydro-1H-pyrimido[4,5-d]pyrimidin-2-one], the melting point lay in the range of 195 to 198 °C. Besides, in series [1], the IC50 was less than 10 µM. In addition, the IC50 in series [2] was less than 10 µM. The IC50 in series [3] was less than 10 µM.
